Assay results: US20220242874A1, “CAMPTOTHECIN DERIVATIVES” (SUN PHARMA ADVANCED RESEARCH COMPANY LIMITED, priority 2019, published 2022)
Read-outs that look alike come from different tables or passages of the source.

What was measured:
[1] = Comparison of solubility in water; type: physicochemical
Text: Comparison of Solubility of Compound I.4 in Water with SN-38

[2] = mouse, 2000 ng/mL, pH 5.5
Experimental: Aliquot of 100 μL were taken from stability samples in pre-labelled micro-centrifuge tubes. 5 μL of cetirizine working internal standard (5 μg/mL) was added to each tube and vortexed well. 1 mL acetonitrile was added to each tube and vortexed well and then centrifuge at 10000 RPM for 5 min at room temperature. The supernatant was collected in ria vials and evaporated to dryness under nitrogen stream. The samples were reconstituted in 1 mL of 0.1% formic acid in water: acetonitrile 30:70 v/v. The prepared samples were analyzed using LC-MS/MS method. Quantification was done against SN-38 standard, prepared at 2000 ng/mL concentration. SN-38 standard prepared by spiking 5 μL of SN-38 working standard to 95 μL of blank mice tumor homogenate to achieve 2000 ng/mL concentration and vortexed well and processed as described.
LC-MS/MS Method: Chromatographic separation was achieved on Inertsil C8-3 (50×4.6 mm, 5 μ) with a flow rate of 250 μL/min and an injection volume of 10 μL. The sample cooler was maintained at 10° C. The column oven temperature was set to 40° C. The mobile phase consisted of 0.1% formic acid in Milli Q water and acetonitrile in the ratio of 30:70 v/v, respectively. […] The overall chromatographic run time was 4.0 minutes.
Detection was performed by tandem mass spectrometry (TSQ Quantum, Discovery MAX, Thermo Electron Corporation) and peak areas were integrated using LCquan software version 2.9 QF1.
0 hr standard area was considered as 100% for calculation.

[3] = Camptosar Prescribing Information; cited from earlier work

CCc1c2c(nc3ccc(O)cc13)-c1cc3c(c(=O)n1C2)COC(=O)[C@]3(O)CC [SN-38]
Solubility in water [1]: Practically insoluble in water | % Remaining in tumor lysate ([2]; 0 h): 100.0% | % Remaining in tumor lysate ([2]; 1 h): 94.9% | % Remaining in tumor lysate ([2]; 2 h): 90.7% | % Remaining in tumor lysate ([2]; 4 h): 100.1% | % Remaining in tumor lysate ([2]; 6 h): 88.9% | % Remaining in tumor lysate ([2]; 8 h): 91.4% | protein bound in plasma [3]: About 96%
